Test results as given in patent US20250197420A1, “MACROCYCLIC COMPOUNDS, COMPOSITIONS, AND METHODS OF USING THEREOF” (Sionna Therapeutics Inc., priority 2022, published 2025).

Key:
[1] = molecular target: T1, Purified recombinant NBD1 (Homo sapiens, UniProt P13569); assay: Aggregation analysis using differential static light scattering (DSLS): thermal stability of NBD1; format: binding; conditions: NBD1 0.2 mg/ml; Tagg of compound well minus average Tagg of DMSO control wells
T1 construct: Purified recombinant NBD1 was produced using previously described methods; made in house
T1 sequence (P13569 423-646 limits assumed): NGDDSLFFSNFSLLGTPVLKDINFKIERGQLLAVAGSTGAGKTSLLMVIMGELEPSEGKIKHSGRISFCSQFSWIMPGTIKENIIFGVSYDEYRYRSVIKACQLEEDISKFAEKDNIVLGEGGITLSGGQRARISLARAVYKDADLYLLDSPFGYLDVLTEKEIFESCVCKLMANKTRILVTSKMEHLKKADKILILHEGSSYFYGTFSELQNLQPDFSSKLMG
Procedure, shortened: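 ΔTagg is compound-well aggregation temperature minus the DMSO-control mean, each Tagg being the inflection point of light scattering measured by DSLS during a 1 °C/min ramp up to 70 °C. The protein was purified NBD1 (0.2 mg/ml) in pH 7.6 buffer containing 2 mM ATP, 5 mM MgCl2 and 1% glycerol.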

[2] = test system: Primary human bronchial epithelial cells from a ΔF508 homozygous CF donor (CF-HBE cells); assay: TECC24 recording of CFTR-mediated transepithelial chloride transport, AUC fold over benchmark VX-809 @10 μM; format: cell-based; conditions: 48 hours incubation, AUC of forskolin-stimulated IEQ
Experimental: The effects of a test agent on CFTR-mediated transepithelial chloride transport is measured using TECC24 recording analysis. Test agents are solubilized in DMSO. Solubilized test agents are mixed with incubation medium containing DMEM/F12, Ultroser G (0.5%; Crescent Chemical, catalog #67042), Hyclone Fetal Clone II (2%; GE Healthcare, catalog #SH30066.02), bovine brain extract (0.25%; Lonza, catalog #CC-4098), insulin ([…]), IL-13 (10 ng/mL), hydrocortisone (20 nM), transferrin ([…]), triiodothyronine (500 nM), ethanolamine (250 nM), epinephrine (1.5 μM), phosphoethanolamine (250 nM), and retinoic acid (10 nM). Primary human bronchial epithelial cells from a ΔF508 homozygous CF donor (CF-HBE cells; from University of North Carolina Cystic Fibrosis Tissue Procurement Center), grown on Transwell HTS 24-well cell culture inserts (Costar, catalog #3378), are exposed to test agents or controls dissolved in incubation medium. The CF-HBE cells are cultured at 36.5° C. for 48 hours before TECC24 recordings are performed in the presence or absence of test agent, a positive control or vehicle (DMSO).
Following incubation, the transwell cell culture inserts containing the test agent or control-treated CF-HBE cells are loaded onto a TECC24 apparatus (TECC v7 or MTECC v2; EP Design) to record the transepithelial voltage (VT) and resistance (TEER) using 4 AgCl electrodes per well configured in current-clamp mode. The apical and basolateral bath solutions both contain (in mM) 140 NaCl, 5 KCl, 2 CaCl2), 1 MgCl2, 10 Hepes, and 10 glucose (adjusted to pH 7.4 with NaOH). To inhibit basal Na+ absorption, the ENaC inhibitor benzamil (10 μM) is added to the bath. Then, the adenylate cyclase activator, forskolin (10 μM), is added to the bath to activate CFTR. The forskolin-stimulated Cl− transport is halted by addition of CFTR inhibitor-172 (20 μM) to the bath at the end of the experiment to confirm specificity. VT and TEER recordings are digitally acquired at routine intervals using TECC or MTECC software (EP Design). VT and TEER are transformed into equivalent transepithelial Cl− current (IEQ), and the Area Under the Curve (AUC) of the IEQ time course between forskolin and CFTR inhibitor-172 addition is generated using Excel (Microsoft). Efficacy is expressed as the ratio of the test agent AUC divided by vehicle AUC. EC50s based on AUC are generated using the non-linear regression log(agonist) vs. response function in Prism software (Graphpad) with HillSlope fixed=1.
If a test agent increases the AUC of the forskolin-stimulated IEQ relative to VX-809 in CF-HBE cells, and this increase is inhibited by CFTR inhibitor-172, then the test agent is considered a CFTR corrector. TECC assay efficacy is expressed as the ratio of the test agent AUC divided by VX-809 AUC. As set forth in Table 2 below, a TECC value less than 3 is marked “A”; a value between 3 and 6 is marked “B”; a value between 6 and 20 is marked “C”.

| SMILES | DSLS (ΔTagg) [1] | TECC (test agent AUC divided by VX-809 AUC) [2] |
| --- | --- | --- |
| CNC(=O)CCc1cccc(C2(C)CCCC(C)(C)CN(C)C(=O)CCc3c(c(F)cc4[nH]ccc34)Oc3ccc(F)c(c3)-c3ncc2[nH]3)c1 (single isomer, unassigned) [Compound 53A, 3-[3-(23,29-difluoro-6,10,10,12-tetramethyl-13-oxo-25-oxa-3,12,20,31-tetrazapentacyclo-[24.3.1.12,5.016,24.017,21]hentriaconta-1(30),2,4,16,18,21,23,26,28-nonaen-6-yl)phenyl]-N-methyl-propanamide] | A (an ΔTagg value less than or equal to 5 °C is marked “A”) | A (a TECC value less than 3 is marked “A”) |
| CNC(=O)CCc1cccc(C2(C)CCCC(C)(C)CN(C)C(=O)CCc3c(c(F)cc4[nH]ccc34)Oc3ccc(F)c(c3)-c3ncc2[nH]3)c1 (single isomer, unassigned) [Compound 53B, 3-[3-(23,29-difluoro-6,10,10,12-tetramethyl-13-oxo-25-oxa-3,12,20,31-tetrazapentacyclo-[24.3.1.12,5.016,24.017,21]hentriaconta-1(30),2,4,16,18,21,23,26,28-nonaen-6-yl)phenyl]-N-methyl-propanamide] | B (a value above 5 °C and less than or equal to 10 °C is marked “B”) | A (a TECC value less than 3 is marked “A”) |
| CN1CC(C)(C)CCCC(C)(c2cccc(CCC(=O)NO)c2)c2cnc([nH]2)-c2cc(ccc2F)Oc2c(F)cc3[nH]ccc3c2CCC1=O (single isomer, unassigned) [Compound 54, 3-[3-(23,29-difluoro-6,10,10,12-tetramethyl-13-oxo-25-oxa-3,12,20,31-tetrazapentacyclo-[24.3.1.12,5.016,24.017,21]hentriaconta-1(30),2,4,16,18,21,23,26,28-nonaen-6-yl)phenyl]propanehydroxamic acid] | A (an ΔTagg value less than or equal to 5 °C is marked “A”) | A (a TECC value less than 3 is marked “A”) |
| CN1CC(C)(C)CCCC(C)(c2cccc(CCC(=O)NO)c2)c2cnc([nH]2)-c2cc(ccc2F)Oc2c(F)cc3[nH]ccc3c2CCC1=O (single isomer, unassigned) [Compound 55, 3-[3-(23,29-difluoro-6,10,10,12-tetramethyl-13-oxo-25-oxa-3,12,20,31-tetrazapentacyclo-[24.3.1.12,5.016,24.017,21]hentriaconta-1(30),2,4,16,18,21,23,26,28-nonaen-6-yl)phenyl]propanehydroxamic acid] | B (a value above 5 °C and less than or equal to 10 °C is marked “B”) | A (a TECC value less than 3 is marked “A”) |
| COCCONC(=O)CCc1cccc(C2(C)CCCC(C)(C)CN(C)C(=O)CCc3c(c(F)cc4[nH]ccc34)Oc3ccc(F)c(c3)-c3ncc2[nH]3)c1 (single isomer, unassigned) [Compound 56, 3-[3-(23,29-difluoro-6,10,10,12-tetramethyl-13-oxo-25-oxa-3,12,20,31-tetrazapentacyclo[24.3.1.12,5.016,24.017,21]hentriaconta-1(30),2,4,16,18,21,23,26,28-nonaen-6-yl)phenyl]-N-(2-methoxyethoxy)propanamide] | A (an ΔTagg value less than or equal to 5 °C is marked “A”) | A (a TECC value less than 3 is marked “A”) |
| COCCONC(=O)CCc1cccc(C2(C)CCCC(C)(C)CN(C)C(=O)CCc3c(c(F)cc4[nH]ccc34)Oc3ccc(F)c(c3)-c3ncc2[nH]3)c1 (single isomer, unassigned) [Compound 57, 3-[3-(23,29-difluoro-6,10,10,12-tetramethyl-13-oxo-25-oxa-3,12,20,31-tetrazapentacyclo[24.3.1.12,5.016,24.017,21]hentriaconta-1(30),2,4,16,18,21,23,26,28-nonaen-6-yl)phenyl]-N-(2-methoxyethoxy)propanamide] | B (a value above 5 °C and less than or equal to 10 °C is marked “B”) | B (a value between 3 and 6 is marked “B”) |
| CN1CC(C)(C)CCCC(C)(c2cccc(CCC(=O)NOCCO)c2)c2cnc([nH]2)-c2cc(ccc2F)Oc2c(F)cc3[nH]ccc3c2CCC1=O (single isomer, unassigned) [Compound 58, 3-[3-(23,29-difluoro-6,10,10,12-tetramethyl-13-oxo-25-oxa-3,12,20,31-tetrazapentacyclo[24.3.1.12,5.016,24.017,21]hentriaconta-1(30),2,4,16,18,21,23,26,28-nonaen-6-yl)phenyl]-N-(2-hydroxyethoxy)propanamide] | A (an ΔTagg value less than or equal to 5 °C is marked “A”) | A (a TECC value less than 3 is marked “A”) |
| CN1CC(C)(C)CCCC(C)(c2cccc(CCC(=O)NOCCO)c2)c2cnc([nH]2)-c2cc(ccc2F)Oc2c(F)cc3[nH]ccc3c2CCC1=O (single isomer, unassigned) [Compound 59, 3-[3-(23,29-difluoro-6,10,10,12-tetramethyl-13-oxo-25-oxa-3,12,20,31-tetrazapentacyclo[24.3.1.12,5.016,24.017,21]hentriaconta-1(30),2,4,16,18,21,23,26,28-nonaen-6-yl)phenyl]-N-(2-hydroxyethoxy)propanamide] | B (a value above 5 °C and less than or equal to 10 °C is marked “B”) | A (a TECC value less than 3 is marked “A”) |
| CON(C)C(=O)CCc1cccc(C2(C)CCCC(C)(C)CN(C)C(=O)CCc3c(c(F)cc4[nH]ccc34)Oc3ccc(F)c(c3)-c3ncc2[nH]3)c1 (single isomer, unassigned) [Compound 60A, 3-[3-(23,29-difluoro-6,10,10,12-tetramethyl-13-oxo-25-oxa-3,12,20,31-tetrazapentacyclo-[24.3.1.12,5.016,24.017,21]hentriaconta-1(30),2,4,16,18,21,23,26,28-nonaen-6-yl)phenyl]-N-methoxy-N-methyl-propanamide] | A (an ΔTagg value less than or equal to 5 °C is marked “A”) | A (a TECC value less than 3 is marked “A”) |
| CON(C)C(=O)CCc1cccc(C2(C)CCCC(C)(C)CN(C)C(=O)CCc3c(c(F)cc4[nH]ccc34)Oc3ccc(F)c(c3)-c3ncc2[nH]3)c1 (single isomer, unassigned) [Compound 60B, 3-[3-(23,29-difluoro-6,10,10,12-tetramethyl-13-oxo-25-oxa-3,12,20,31-tetrazapentacyclo-[24.3.1.12,5.016,24.017,21]hentriaconta-1(30),2,4,16,18,21,23,26,28-nonaen-6-yl)phenyl]-N-methoxy-N-methyl-propanamide] | B (a value above 5 °C and less than or equal to 10 °C is marked “B”) | B (a value between 3 and 6 is marked “B”) |
| CCOC(=O)Cc1cccc(C2(C)CCCC(C)(C)CN(C)C(=O)CCc3c(c(F)cc4[nH]ccc34)Oc3ccc(F)c(c3)-c3ncc2[nH]3)c1 (single isomer, unassigned) [Compound 64A, ethyl 2-[3-(23,29-difluoro-6,10,10,12-tetramethyl-13-oxo-25-oxa-3,12,20,31-tetrazapentacyclo-[24.3.1.12,5.016,24.017,21]hentriaconta-1(30),2,4,16,18,21,23,26,28-nonaen-6-yl)phenyl]acetate] | A (an ΔTagg value less than or equal to 5 °C is marked “A”) | A (a TECC value less than 3 is marked “A”) |
